Activity calls are given as the source filed them. The rule behind the calls is not given here.
Tests used:
Format in all cases: cell-based
Endothelin-1 receptor [1] = target: T1, Endothelin-1 receptor (Homo sapiens, UniProt P25101); experiment: Displacement of [125I]endothelin-1 from human recombinant ETA receptor expressed in CHO cells
T1 sequence (P25101 whole entry): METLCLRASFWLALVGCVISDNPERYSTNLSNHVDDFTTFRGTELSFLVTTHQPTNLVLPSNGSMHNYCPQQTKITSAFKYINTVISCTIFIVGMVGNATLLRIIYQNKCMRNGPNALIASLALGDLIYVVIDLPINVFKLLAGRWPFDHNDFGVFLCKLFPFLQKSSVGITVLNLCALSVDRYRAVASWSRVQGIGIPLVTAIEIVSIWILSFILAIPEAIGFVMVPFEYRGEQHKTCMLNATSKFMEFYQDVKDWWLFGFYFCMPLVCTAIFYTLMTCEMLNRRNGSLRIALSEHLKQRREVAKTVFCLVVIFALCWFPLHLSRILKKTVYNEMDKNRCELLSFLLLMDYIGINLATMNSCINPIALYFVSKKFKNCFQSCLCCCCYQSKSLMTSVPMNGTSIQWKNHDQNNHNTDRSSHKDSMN

[2] = target: T2, Endothelin receptor type B (Homo sapiens, UniProt P24530); experiment: Displacement of [125I]endothelin-1 from human recombinant ETB receptor expressed in CHO cells
T2 sequence (P24530 whole entry): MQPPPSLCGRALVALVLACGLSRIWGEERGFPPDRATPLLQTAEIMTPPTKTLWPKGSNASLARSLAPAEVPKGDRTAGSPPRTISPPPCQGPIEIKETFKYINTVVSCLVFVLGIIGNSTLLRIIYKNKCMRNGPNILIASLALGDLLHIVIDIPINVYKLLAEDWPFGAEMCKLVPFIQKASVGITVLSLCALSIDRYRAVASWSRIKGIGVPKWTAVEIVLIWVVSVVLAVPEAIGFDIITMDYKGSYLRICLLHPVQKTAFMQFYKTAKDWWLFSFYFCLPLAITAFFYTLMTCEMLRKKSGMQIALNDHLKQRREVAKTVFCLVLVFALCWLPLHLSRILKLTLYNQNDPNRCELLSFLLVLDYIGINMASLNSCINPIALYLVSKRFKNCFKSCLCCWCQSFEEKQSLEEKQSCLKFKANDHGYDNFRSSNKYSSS

[3] = target: T3, Endothelin-1 receptor (Homo sapiens) (UniProt P25101); experiment: Activity at human recombinant ETA receptor expressed in CHO cells assessed as inhibition of endothelin-1-induced increase in extracellular acidification rate at 20 uM by microphysiometry
T3 sequence (whole entry): T1 sequence (P25101 whole entry)

[4] = target: T4, Endothelin receptor type B (Homo sapiens) (UniProt P24530); experiment: Activity at human recombinant ETB receptor expressed in CHO cells assessed as inhibition of endothelin-1-induced increase in extracellular acidification rate at 100 uM by microphysiometry
T4 sequence (whole entry): T2 sequence (P24530 whole entry)

Endothelin-1 receptor [5] = target: T5, Endothelin-1 receptor (Rattus norvegicus, UniProt P26684); experiment: Displacement of [125I]endothelin-1 from ETA receptor in rat A10 cells by scintillation counting
T5 sequence (P26684 whole entry): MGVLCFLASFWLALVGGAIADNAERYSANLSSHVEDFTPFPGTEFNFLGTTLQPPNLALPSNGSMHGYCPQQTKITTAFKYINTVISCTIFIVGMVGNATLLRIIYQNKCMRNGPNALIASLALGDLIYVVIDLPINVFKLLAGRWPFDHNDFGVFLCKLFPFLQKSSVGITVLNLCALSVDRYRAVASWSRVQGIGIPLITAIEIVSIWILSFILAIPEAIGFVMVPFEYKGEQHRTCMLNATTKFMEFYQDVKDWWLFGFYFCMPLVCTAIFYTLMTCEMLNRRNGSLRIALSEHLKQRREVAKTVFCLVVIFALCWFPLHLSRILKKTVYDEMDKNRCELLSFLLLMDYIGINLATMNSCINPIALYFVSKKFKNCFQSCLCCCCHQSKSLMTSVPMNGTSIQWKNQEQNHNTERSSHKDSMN

[6] = target: T3, Endothelin-1 receptor (Homo sapiens); experiment: Activity at human recombinant ETA receptor expressed in CHO cells assessed as inhibition of endothelin-1-induced increase in extracellular acidification rate at 100 uM by microphysiometry
[7] = target: T4, Endothelin receptor type B (Homo sapiens); experiment: Activity at human recombinant ETB receptor expressed in CHO cells assessed as inhibition of endothelin-1-induced increase in extracellular acidification rate at 20 uM by microphysiometry

| IC50 (Endothelin-1 receptor [1]) | IC50 [2] | inhibition [3] | Activity [4] | IC50 (Endothelin-1 receptor [5]) | inhibition [6] | Activity [7] | Compound |
| --- | --- | --- | --- | --- | --- | --- | --- |
| 160 µM |  |  |  |  |  |  | COc1cc(C)c(OC)c2c1C[C@@H](C(=O)O)C[C@H]2c1ccccc1 |
| 40 µM | > 500 µM | 28% | inactive | 580 µM | 39% | inactive | COC[C@@H]1Cc2cc(OC)c3c(c2[C@H](c2ccc(OC)c(OC)c2)[C@H]1COC)OCO3 [HYPOPHYLLANTHIN] |
| 75 µM | > 500 µM |  |  | 400 µM |  |  | COC[C@@H]1Cc2cc3c(c(OC)c2[C@H](c2ccc(OC)c(OC)c2)[C@H]1COC)OCO3 [NIRTETRALIN] |

| Compound | IC50 (Endothelin-1 receptor [1]) | IC50 [2] | inhibition [3] | Activity [4] | IC50 (Endothelin-1 receptor [5]) | inhibition [6] | Activity [7] |
| --- | --- | --- | --- | --- | --- | --- | --- |
| COC[C@H](Cc1ccc(OC)c(OC)c1)[C@H](COC)Cc1ccc(OC)c(OC)c1 [PHYLLANTHIN] | > 1000 µM | > 500 µM |  |  | > 1000 µM |  |  |

Reference: ChEMBL document CHEMBL1150078, “A Novel Class of Non-Peptidic Endothelin Antagonists Isolated from the Medicinal Herb Phyllanthus niruri” (J Nat Prod, 1995)
